As usually defined, the Ki is a dissociation constant, usually derived from enzyme kinetics or from competition with a known ligand.

One assay has as its target T1, PPARδ (Homo sapiens, UniProt Q03181).
T1 construct: expressed in transfected cells; host or cells: CV1 (African green monkey kidney)
T1 sequence (Q03181 211-439 limits assumed): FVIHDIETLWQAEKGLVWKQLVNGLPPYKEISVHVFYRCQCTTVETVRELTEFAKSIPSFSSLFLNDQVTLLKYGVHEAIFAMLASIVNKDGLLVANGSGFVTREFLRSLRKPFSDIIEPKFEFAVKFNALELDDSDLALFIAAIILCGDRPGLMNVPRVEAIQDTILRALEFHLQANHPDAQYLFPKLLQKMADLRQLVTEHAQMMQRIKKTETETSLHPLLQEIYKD
Nature of the assay: Gal4 PPARδ reporter (CTF) functional assay in CV1 cells. The assay is classed as cell-based. The settings on record: examined up to 10 M; versus 10 μM PPAR agonist reference compound. The protocol: Because GPR40 is known to be activated by ligands to PPARγ, exemplified compounds are examined in Gal4 PPARα, Gal4 PPARδ, and PPARγ reporter assays to determine the selectivity of exemplified compounds for PPAR receptors. CV1 cells, which are derived from the renal tissue of an African green monkey, are transfected with various receptor and reporter plasmids using Fugene. […] After 24 hours incubation with compounds, cells are lysed and luciferase activity is determined as a measure of receptor activation by luminescence. […] The maximum percent stimulation is determined versus maximum stimulation obtained with 10 μM of an appropriate PPAR agonist reference compound, 2-methyl-2-(4-{2-methyl-3-[2-(phenylcarbonyl)-4-(trifluoromethoxy)phenoxy]propoxy}phenoxy)propanoic acid. […] Efficacy was negative for PPARα, PPARδ, and PPARγ is detected with the compound of Example 1 when examined up to […] in the specific PPAR co-transfection (CTF) functional assays described above. […]

The target in another assay is T2, human GPR40 (hGPR40) (Homo sapiens, UniProt O14842).
T2 construct: expressed in transfected cells; host or cells: HEK293 (membranes)
T2 sequence (O14842 whole entry): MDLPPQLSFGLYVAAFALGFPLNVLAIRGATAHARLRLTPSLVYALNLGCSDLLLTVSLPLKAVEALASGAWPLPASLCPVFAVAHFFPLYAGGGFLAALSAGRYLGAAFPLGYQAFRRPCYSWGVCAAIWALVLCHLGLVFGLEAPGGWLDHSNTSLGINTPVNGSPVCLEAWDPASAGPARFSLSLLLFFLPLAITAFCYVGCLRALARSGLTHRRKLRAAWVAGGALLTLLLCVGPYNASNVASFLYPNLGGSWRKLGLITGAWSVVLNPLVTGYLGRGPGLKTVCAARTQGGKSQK
Nature of the assay: Radioligand competition binding with [3H]TAK-875, HEK293 membranes. The settings on record: 5 nM [3H]TAK-875; Cheng-Prusoff; Mean±SEM. An excerpt:
Competition curves are plotted as the percent specific inhibition versus concentration of compound and analyzed using a four parameter nonlinear regression fit with variable slope. […] See Cheng, Y. and Prusoff, W. H. (1973) “Relationship between the inhibition constant (Ki) and the concentration of inhibitor which causes 50 percent inhibition (IC50) of an enzymatic reaction,” Biochem Pharmacol 22(23):3099-3108. (Mean±SEM; SEM=standard error of the mean.).
(In general: In a radioligand displacement assay an active substance lowers the binding of a labelled ligand.)

The structures appear in SMILES notation.

As to `CC#C[C@@H](CC(=O)O)c1ccc(OCc2cc(-c3ccccc3C)cn3ncnc23)cc1` [Example 1, (S)-3-[4-(6-o-Tolyl-[1,2,4]triazolo[1,5-a]pyridin-8-ylmethoxy)-phenyl]-hex-4-ynoic acid], the “Efficacy for PPARδ” value at PPARδ is listed as “negative (Efficacy of <20% is considered negative)”. This compound also returned a Ki at human GPR40 (hGPR40) of 24.6 nM.

Source of the values: patent publication US9617263B2, “Phenyl-triazolo-pyridine compounds” (Eli Lilly and Company, priority 2014, dated 2017).
